{"source": "patent US10278950B2", "about": "“Therapeutic agents containing cannabis flavonoid derivative for ocular disorders” (priority 2015, dated 2019)", "data": [{"target": "T1, BIKE (BMP2K) kinase (Homo sapiens, UniProt Q9NSY1)", "T1 construct": "made in house", "T1 sequence (Q9NSY1 whole entry)": "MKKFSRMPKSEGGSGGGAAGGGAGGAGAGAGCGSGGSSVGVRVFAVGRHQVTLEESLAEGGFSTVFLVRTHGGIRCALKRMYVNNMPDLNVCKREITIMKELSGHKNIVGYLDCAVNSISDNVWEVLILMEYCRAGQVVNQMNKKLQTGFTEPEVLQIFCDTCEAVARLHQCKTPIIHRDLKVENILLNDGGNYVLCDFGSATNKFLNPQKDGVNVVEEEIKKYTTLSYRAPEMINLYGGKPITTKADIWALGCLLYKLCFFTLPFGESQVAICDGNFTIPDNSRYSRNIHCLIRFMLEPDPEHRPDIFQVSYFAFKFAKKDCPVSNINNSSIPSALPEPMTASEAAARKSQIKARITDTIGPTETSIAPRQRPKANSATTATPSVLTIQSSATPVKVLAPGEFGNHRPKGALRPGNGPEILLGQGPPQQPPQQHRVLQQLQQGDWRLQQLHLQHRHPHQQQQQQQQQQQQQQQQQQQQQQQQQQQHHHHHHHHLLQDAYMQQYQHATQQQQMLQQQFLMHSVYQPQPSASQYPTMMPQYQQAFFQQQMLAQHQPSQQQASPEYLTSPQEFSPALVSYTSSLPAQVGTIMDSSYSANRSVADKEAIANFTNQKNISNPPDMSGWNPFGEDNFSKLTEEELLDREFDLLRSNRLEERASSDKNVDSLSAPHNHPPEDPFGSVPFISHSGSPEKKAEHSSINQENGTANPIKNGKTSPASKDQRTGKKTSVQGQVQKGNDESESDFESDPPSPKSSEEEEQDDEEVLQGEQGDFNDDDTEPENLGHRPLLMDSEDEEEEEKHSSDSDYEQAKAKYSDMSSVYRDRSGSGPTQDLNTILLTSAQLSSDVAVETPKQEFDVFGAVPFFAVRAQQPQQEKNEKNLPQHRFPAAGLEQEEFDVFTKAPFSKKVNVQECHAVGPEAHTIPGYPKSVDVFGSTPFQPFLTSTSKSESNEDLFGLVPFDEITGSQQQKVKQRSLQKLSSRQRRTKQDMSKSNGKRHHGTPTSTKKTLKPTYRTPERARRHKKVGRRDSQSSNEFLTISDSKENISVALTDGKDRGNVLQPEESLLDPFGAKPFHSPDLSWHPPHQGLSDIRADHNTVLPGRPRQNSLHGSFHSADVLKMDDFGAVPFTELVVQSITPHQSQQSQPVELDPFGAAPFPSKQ", "assay": "Kinase inhibition assay (competition binding assay)", "conditions": "qualitative statement; dose response curve only in FIG. 3, no values given", "procedure": "Cannabis flavonoids and their analogs were subjected to kinase inhibition assay. The compounds were first screened at a single concentration of 10 μM in the primary assay. Compounds inhibiting at least 70% of specific kinases were subjected to further screening to determine kd values. To determine the kd values, competition binding assays were established, authenticated and executed as described previously (Fabian et al., 2005, Karaman et al., 2008). For most assays, kinases were fused to T7 phage strains (Fabian et al. 2005) and for the other assays, kinases were produced in HEK-293 cells after which they were tagged with DNA for quantitative PCR detection (data not shown). In general, full-length constructs were used for small, single domain kinases, and catalytic domain constructs for large multi-domain kinases. The binding assays utilized streptavidin-coated magnetic beads treated with biotinylated small molecule ligands for 30 minutes at room temperature which generated affinity resins for the kinase assays. The liganded beads were blocked with excess biotin and washed with blocking buffer (SeaBlock (Pierce), 1% BSA, 0.05% Tween 20, 1 mM DTT) to remove unbound ligand and to reduce non-specific phage binding. Binding reactions were assembled by combining kinases, liganded affinity beads, and test compounds in 1× binding buffer (20% SeaBlock, 0.17×PBS, 0.05% Tween 20, 6 mM DTT). Test compounds were prepared as 40× stocks in 100% DMSO and diluted directly into the assay (Final DMSO concentration=2.5%). All reactions were performed in polypropylene 384-well plates in a final volume of 0.04 ml. The assay plates were incubated at room temperature with shaking for 1 hour and the affinity beads were washed with wash buffer (1×PBS, 0.05% Tween 20). The beads were then re-suspended in elution buffer (1×PBS, 0.05% Tween 20, 0.5 μM non-biotinylated affinity ligand) and incubated at room temperature with shaking for 30 minutes. The kinase concentration in the eluates was measured by quantitative PCR. Kd values were determined using a standard dose response curve using the hill equation. Curves were fitted using a non-linear least square fit with the Levenberg-Marquardt algorithm.", "values": [{"smiles": "COc1cc(-c2cc(=O)c3c(O)c(C/C=C(\\C)CCC=C(C)C)c(O)cc3o2)ccc1O", "note": "[cannflavin A]", "ability to inhibit the BMP2K kinase": "demonstrated ability to inhibit"}, {"smiles": "COc1cc(-c2cc(=O)c3c(O)c(CC=C(C)C)c(O)cc3o2)ccc1O", "note": "[cannflavin B]", "ability to inhibit the BMP2K kinase": "demonstrated ability to inhibit"}, {"smiles": "COc1cc(-c2cc(=O)c3c(O)cc(O)c(C/C=C(\\C)CCC=C(C)C)c3o2)ccc1O", "note": "[cannflavin C]", "ability to inhibit the BMP2K kinase": "demonstrated ability to inhibit"}, {"smiles": "COc1cc(-c2cc(=O)c3c(O)cc(O)c(CC=C(C)C)c3o2)ccc1O", "note": "[isocannflavin B]", "ability to inhibit the BMP2K kinase": "demonstrated ability to inhibit"}]}]}
